Results reported in patent publication US8247211B2, “Glycopeptide antibiotics” (American Cyanamid Company, priority 2001, dated 2012).
In brackets after ≈: the same amount, converted by molar mass.

How the values were obtained:
Assay in all cases: In vitro antibacterial evaluation: minimum inhibitory concentration (MIC), broth dilution method
Format in all cases: cell-based
[1] = system: Enterococcus sp.
How it was run: (§1)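 MIC by broth dilution in Mueller-Hinton II medium following NCCLS M7-A2. Inoculum was 5×10^5 CFU/mL and antibiotic was tested over 64-0.06 μg/mL. Gram-positive panel included clinical isolates resistant to methicillin, penicillin and/or vancomycin.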

[2] = system: Escherichia coli
How it was run: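 Using Muller-Hinton II […] and an inoculum of 5×10^5 CFU/mL, antibiotic dilutions from 64 down to 0.06 μg/mL were tested following NCCLS M7-A2. The MIC is the lowest concentration inhibiting growth, including in methicillin-, penicillin- or vancomycin-resistant clinical isolates.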

[3] = system: Staphylococcus sp.; settings: for MIC Staphylococcus haemolyticus (GC 4546): strain GC 4546; for MIC Coagulase Negative Staphylococcus (GC 4547): strain GC 4547; for MIC Coagulase Negative Staphylococcus (GC 4548): strain GC 4548; for MIC Coagulase Negative Staphylococcus (GC 4549): strain GC 4549; for MIC Coagulase Negative Staphylococcus (GC 4551): strain GC 4551
How it was run: as §1

[4] = system: Streptococcus sp.
How it was run: as §1

[5] = broth dilution, 5×10^5 CFU/mL, 18 hours at 35° C.
[6] = 5×10^5 CFU/mL, 18 hours at 35° C.
[7] = broth dilution, 18 hours at 35° C.

N=C1NCC(C(O)C2NC(=O)C(Cc3ccc(OC4OC(CO)C(OC5OC(CO)C(O)C6OC7(OC56)C5CC6CC(C5)CC7C6)C(O)C4O)cc3)NC(=O)C(CC3CCCCC3)NC(=O)CNC(=O)C(CO)NC(=O)C(C(O)C3CNC(=N)N3C3OC(CO)C(O)C(O)C3O)NC2=O)N1 (centres unmarked) [Example 106a, Cyclo[3-cyclohexylalanyl-O-[4-O-[2,3-O-(2-adamantylidene)hexopyranosyl]hexopyranosyl]-tyrosyl-3-(2-iminoimidazolidin-4-yl)seryl-3-(3-hexopyranosyl-2-iminoimidazolidin-4-yl)-serylserylglycyl]]
MIC Enterococccus avium (GC 4558) [1, 5]: 4 µg/mL (≈ 2.82 µM) | MIC Enterococccus faecalis (ATCC 29212) [1, 5]: 8 µg/mL (≈ 5.64 µM) | MIC Enterococccus faecalis (GC 2691) [1, 5]: 4 µg/mL (≈ 2.82 µM) | MIC Enterococccus faecalis (GC 3059) [1, 5]: 8 µg/mL (≈ 5.64 µM) | MIC Enterococccus faecalis (GC 4552) [1, 5]: 4 µg/mL (≈ 2.82 µM) | MIC Enterococccus faecalis (GC 4553) [1, 5]: 4 µg/mL (≈ 2.82 µM) | MIC Enterococccus faecalis (GC 4554) [1, 5]: 8 µg/mL (≈ 5.64 µM) | MIC Enterococccus faecalis (GC 6189) [1, 5]: 4 µg/mL (≈ 2.82 µM) | MIC Enterococccus faecium (GC 2243) [1, 5]: 4 µg/mL (≈ 2.82 µM) | MIC Enterococccus faecium (GC 4556) [1, 5]: 8 µg/mL (≈ 5.64 µM) | MIC Enterococccus faecium (GC 4557) [1, 5]: 2 µg/mL (≈ 1.41 µM) | MIC Enterococcus faecalis (GC 2242) [1, 5]: 4 µg/mL (≈ 2.82 µM) | MIC Escherichia coli (ATCC 25922) [2, 6]: 32 µg/mL (≈ 22.5 µM) | MIC Escherichia coli (GC 4559) [2, 6]: 32 µg/mL (≈ 22.5 µM) | MIC Escherichia coli (GC 4560) [2, 6]: 2 µg/mL (≈ 1.41 µM) | MIC Staphylococcus aureus (ATCC 29213) ([3]; strain ATCC 29213): 2 µg/mL (≈ 1.41 µM) | MIC Staphylococcus aureus (GC 1131) ([3]; strain GC 1131): 2 µg/mL (≈ 1.41 µM) | MIC Staphylococcus aureus (GC 3051) ([3]; strain GC 3051): 2 µg/mL (≈ 1.41 µM) | MIC Staphylococcus aureus (GC 3053) ([3]; strain GC 3053): 2 µg/mL (≈ 1.41 µM) | MIC Staphylococcus aureus (GC 4541) ([3]; strain GC 4541): 2 µg/mL (≈ 1.41 µM) | MIC Staphylococcus aureus (GC 4542) ([3]; strain GC 4542): 2 µg/mL (≈ 1.41 µM) | MIC Staphylococcus aureus-SMITH (GC 4543) ([3]; strain GC 4543, 18 hours at 35° C.): 2 µg/mL (≈ 1.41 µM) | MIC Staphylococcus aureus-SMITH (GC 4543) ([3]; strain GC 4543, broth dilution, 18 hours at 35° C.): 2 µg/mL (≈ 1.41 µM) | MIC Staphylococcus aureus (GC 4544) ([3]; strain GC 4544): 4 µg/mL (≈ 2.82 µM) | MIC Staphylococcus aureus (GC 4545) ([3]; strain GC 4545): 2 µg/mL (≈ 1.41 µM) | MIC Staphylococcus haemolyticus (GC 4546) [3]: 2 µg/mL (≈ 1.41 µM) | MIC Staphylococcus haemolyticus (GC 4546) [3, 7]: 2 µg/mL (≈ 1.41 µM) | MIC Coagulase Negative Staphylococcus (GC 4547) [3]: 2 µg/mL (≈ 1.41 µM) | MIC Coagulase Negative Staphylococcus (GC 4547) [3, 7]: 2 µg/mL (≈ 1.41 µM) | MIC Coagulase Negative Staphylococcus (GC 4548) [3]: 1 µg/mL (≈ 0.704 µM) | MIC Coagulase Negative Staphylococcus (GC 4548) [3, 7]: 1 µg/mL (≈ 0.704 µM) | MIC Coagulase Negative Staphylococcus (GC 4549) [3]: 1 µg/mL (≈ 0.704 µM) | MIC Coagulase Negative Staphylococcus (GC 4549) [3, 7]: 1 µg/mL (≈ 0.704 µM) | MIC Coagulase Negative Staphylococcus (GC 4551) [3]: 2 µg/mL (≈ 1.41 µM) | MIC Coagulase Negative Staphylococcus (GC 4551) [3, 7]: 2 µg/mL (≈ 1.41 µM) | MIC Streptococcus agalactiae (GC 4564) [4, 5]: 0.25 µg/mL (≈ 0.176 µM) | MIC Streptococcus pneumoniae (GC 1894) [4, 5]: <0.06 µg/mL | MIC Streptococcus pneumoniae (GC 4565) [4, 5]: <0.06 µg/mL | MIC Streptococcus pneumonine (ATCC 6301) [4, 5]: 0.12 µg/mL (≈ 0.0845 µM) | MIC Streptococcus pyogenes (GC 4563) [4, 5]: 0.25 µg/mL (≈ 0.176 µM)

CCCCCCN=C1NCC(C(O)C2NC(=O)C(C(O)C3CNC(=N)N3)NC(=O)C(Cc3ccc(OC4OC(CO)C(OC5OC6COC7(OC6C(O)C5O)C5CC6CC(C5)CC7C6)C(O)C4O)cc3)NC(=O)C(C(C)c3ccccc3)NC(=O)CNC(=O)C(CO)NC2=O)N1C1OC(CO)C(O)C(O)C1O (centres unmarked) [Example 84]
MIC Enterococcus faecalis (GC 2242) ([1]; Enterococcus faecalis (GC 2242), broth dilution, 18 hours at 35° C.): 8 µg/mL (≈ 5.29 µM) | MIC Enterococcus faecalis (GC 2691) ([1]; Enterococcus faecalis (GC 2691), broth dilution, 18 hours at 35° C.): 8 µg/mL (≈ 5.29 µM) | MIC Enterococcus faecalis (GC 3059) ([1]; Enterococcus faecalis (GC 3059), broth dilution, 18 hours at 35° C.): 8 µg/mL (≈ 5.29 µM) | MIC Enterococcus faecalis (ATCC 29212) ([1]; strain ATCC 29212): 8 µg/mL (≈ 5.29 µM) | MIC Enterococcus faecalis (GC 2242) ([1]; strain GC 2242): 8 µg/mL (≈ 5.29 µM) | MIC Enterococcus faecium (GC 2243) ([1]; strain GC 2243): 4 µg/mL (≈ 2.65 µM) | MIC Enterococcus faecalis (GC 2691) ([1]; strain GC 2691): 8 µg/mL (≈ 5.29 µM) | MIC Enterococcus faecalis (GC 3059) ([1]; strain GC 3059): 8 µg/mL (≈ 5.29 µM) | MIC Enterococcus faecalis (GC 4552) ([1]; strain GC 4552): 8 µg/mL (≈ 5.29 µM) | MIC Enterococcus faecalis (GC 4553) ([1]; strain GC 4553): 8 µg/mL (≈ 5.29 µM) | MIC Enterococcus faecalis (GC 4554) ([1]; strain GC 4554): 16 µg/mL (≈ 10.6 µM) | MIC Enterococcus faecium (GC 4556) ([1]; strain GC 4556): 8 µg/mL (≈ 5.29 µM) | MIC Enterococcus faecium (GC 4557) ([1]; strain GC 4557): 1 µg/mL (≈ 0.662 µM) | MIC Enterococcus avium (GC 4558) ([1]; strain GC 4558): 8 µg/mL (≈ 5.29 µM) | MIC Enterococcus faecalis (GC 6189) ([1]; strain GC 6189): 8 µg/mL (≈ 5.29 µM) | MIC Escherichia coli (ATCC 25922) ([2]; strain ATCC 25922): >64 µg/mL | MIC Escherichia coli (GC 4559) ([2]; strain GC 4559): 64 µg/mL (≈ 42.3 µM) | MIC Escherichia coli (GC 4560) ([2]; strain GC 4560): 4 µg/mL (≈ 2.65 µM) | MIC Staphylococcus aureus (ATCC 29213) [3, 7]: 8 µg/mL (≈ 5.29 µM) | MIC Staphylococcus aureus (GC 1131) [3, 7]: 8 µg/mL (≈ 5.29 µM) | MIC Staphylococcus aureus (GC 3051) [3, 7]: 8 µg/mL (≈ 5.29 µM) | MIC Staphylococcus aureus (GC 3053) [3, 7]: 8 µg/mL (≈ 5.29 µM) | MIC Staphylococcus aureus (GC 4541) [3, 7]: 4 µg/mL (≈ 2.65 µM) | MIC Staphylococcus aureus (GC 4542) [3, 7]: 8 µg/mL (≈ 5.29 µM) | MIC Staphylococcus aureus (GC 4544) [3, 7]: 8 µg/mL (≈ 5.29 µM) | MIC Staphylococcus aureus (GC 4545) [3, 7]: 8 µg/mL (≈ 5.29 µM) | MIC Staphylococcus aureus-SMITH (GC 4543) ([3]; strain SMITH GC 4543, broth dilution, 18 hours at 35° C.): 4 µg/mL (≈ 2.65 µM) | MIC Streptococcus agalactiae (GC 4564) ([4]; Streptococcus agalactiae (GC 4564), broth dilution, 18 hours at 35° C.): 1 µg/mL (≈ 0.662 µM) | MIC Streptococcus pneumoniae (ATCC 6301) ([4]; Streptococcus pneumoniae (ATCC 6301), broth dilution, 18 hours at 35° C.): 1 µg/mL (≈ 0.662 µM) | MIC Streptococcus pneumoniae (GC 1894) ([4]; Streptococcus pneumoniae (GC 1894), broth dilution, 18 hours at 35° C.): 0.12 µg/mL (≈ 0.0794 µM) | MIC Streptococcus pneumoniae (GC 4565) ([4]; Streptococcus pneumoniae (GC 4565), broth dilution, 18 hours at 35° C.): 1 µg/mL (≈ 0.662 µM) | MIC Streptococcus pyogenes (GC 4563) ([4]; Streptococcus pyogenes (GC 4563), broth dilution, 18 hours at 35° C.): 0.5 µg/mL (≈ 0.331 µM) | MIC Streptococcus pneumoniae (ATCC 6301) ([4]; strain ATCC 6301): 1 µg/mL (≈ 0.662 µM) | MIC Streptococcus pneumoniae (GC 1894) ([4]; strain GC 1894): 0.12 µg/mL (≈ 0.0794 µM) | MIC Streptococcus pyogenes (GC 4563) ([4]; strain GC 4563): 0.5 µg/mL (≈ 0.331 µM) | MIC Streptococcus agalactiae (GC 4564) ([4]; strain GC 4564): 1 µg/mL (≈ 0.662 µM) | MIC Streptococcus pneumoniae (GC 4565) ([4]; strain GC 4565): 1 µg/mL (≈ 0.662 µM)
